“Also recorded” adds a separate entry of the source. Like-named read-outs stand apart in the source and are kept apart here. Where a SMILES comes first, the peptide text is derived from it. The star is where a group is joined. NHC(CH2O-Palmitoyl)3 = CCCCCCCCCCCCCCCC(=O)OCC(COC(=O)CCCCCCCCCCCCCCC)(COC(=O)CCCCCCCCCCCCCCC)N*; X3 = CCCCCCCCCCCCCC(=O)OCC(CO)(CO)N*; X2 = CCCCCCCCCCCC(=O)OCC(CO)(CO)N*
Tests used:
CHO cells [1] = format: cell-based, Chinese Hamster
Description: (LEGEND--FIGS. 7, 8 and 9; none; no agent used with plasmid DNA, rb/blank; reagent blank, number following description of compound indicates no. μl of 2 mM stock (diluted with water). 7b: 100% cell survival was taken from dishes which were "mock transfected" with no DNA or transfection agent. 0% viability was assayed in the absence of cells. Viability was assessed using the dye alamar blue.)
(§1) Relative levels of cytotoxicity caused by the different agents were compared during the experiment using the dye "Alamar Blue" (Alamar, Sacramento Calif.).
(§2) The ratio of [lipid]/[DNA] at which that maximum was achieved is shown in brackets for the two different cell types in the following order; (Cos 1) (CHO). Experiments shown were carried out in Cos 1 cells, as described above. Viability was measured with the dye alamar blue . # Denotes compounds tested in a separate experiment. * Viability in this experiment was determined with MTS. OD is a measure of relative viability of the cells exposed to the different agents, and as with alamar blue, a higher value indicates greater cell viability.

Cos 1 cells [2] = test: β-gal microtitre plate transfection assay, Cos 1; format: cell-based, African Green Monkey
Text: (§3) For experiment "c", a plasmid pPGKlaczNLS encoding β-galactosidase under the control of the mouse PGK promoter (kind gift from G.Hannan) or pSVGAL which utilises the SV40 early promoter (Sleigh, M. J. and Lockett, T. J. (1985). EMBO J. 4:3831-3837),was transfected. This experiment and assay were modified from Feigner et al J. Biol Chem. 269(4) 2550-2561 1994. This protocol allows the simultaneous assessment of 72 different combinations and concentrations of DNA and test agent in a microtitre tray. […] Cytotoxicity was assessed using alamar blue, and a sample graph is shown for experiment a.
Compounds were tested for their ability to transfect either the CAT or β-gal gene carried on plasmids, and assayed as described above.
(§4) The ratio of [lipid]/[DNA] at which that maximum was achieved is shown. Experiments shown were carried out in Cos 1 cells, as described above. MTS OD is a measure of relative viabilility of the cells exposed to the different agents, a higher value indicates greater cell viability. * These points were taken from a separate experiment and some slight variation between absolute numbers should be expected between experiments.
(§5) Each of these compounds was tested for transfection ability and cytotoxicity on standard cell lines using standard conditions as described above.
as §2

CHO cells [3] = test: β-gal microtitre plate transfection assay, CHO; format: cell-based, Chinese Hamster; conditions: Table 3, CHO; for β-gal (CHO): highest reading of 72 conditions
Text: as §3, §5, §2

Cos 1 cells [4] = format: cell-based, African Green Monkey
Text: as §1, §3, §4, §2

Cos 1 cells [5] = test: Transfection of pSVLCAT, CAT assay, Cos 1; format: cell-based, African Green Monkey
Description: To test the transfection properties of the lead compound K3ATP3 (VerafectinA3), whole uncut plasmid carrying the gene encoding CAT (chloramphenicol acetyl transferase) under the control of the SV40 late promoter, pSVLCAT (Cameron, F. H. and Jennings, P. A. (1989) PNAS 86, 9139-9143) was mixed with the test agent and put on Cos 1 cells under various conditions. After 48 hours of culture the level of secreted CAT was assayed from the culture medium.
Solution I: 1 μg Plasmid DNA in 500 μl Dulbeccos Modified Eagles Medium (DME)
Solution II: 0-20 μl VerafectinA3 (2.5 mg/ml 25% DMSO) in 500 μl DME, Vortex
Combine solution I and II, vortex briefly and incubate at room temperature for 10 min.
Add mix to washed cells in 60 mm tissue culture dishes (seeded 0.5×10^6 /dish previous day) for 6 hrs at 37° C., 5% C02. Add 2 ml DME+10% FCS for remainder of 48 hrs. Assay CAT levels in tissue culture medium (Sleigh, M. J. (1986) Anal. Biochem. 156.251-256).
a--Compare VerafectinA3 dissolved in DMSO or ethanol.
b--Compare VerafectinA3 on cells 6 hrs to overnight. VerafectinA3 at 10 mg/ml in 100% solvent was diluted to 2.5 mg/ml with water.
Transfection was carried out as for experiment 1. VerafectinA3 was left in contact with the cells for varying times.
Protocol was the same for the Verafectins as described above. Lipofectamine protocol was according to manufacturers instructions. Cos 1 cells were seeded at 5×10^5 /60 mm dish and adhered overnight in DME with 10% FCS.
Solution A: 0.5 μg pSVLCAT/60 mm dish.
Solution B: Lipofectamine 10 and 15 μl 2 mg/ml (mixed formulation 3:1 with DOPE).
OR; VerafectinA3 and VerafectinG2 20 μl 2 mM (2.8 and 2.3 mg/ml respectively) stock.
OR; VerafectinG2 was also tested with an equimolar amount of DOPE. VerafectinG2 and DOPE were mixed in DDME and vortexed for 30 seconds before use. Solutions A and B were combined before overlaying on washed cells.
The serum free incubation period in the presence of test agents and DNA was 6 hrs, then 1 ml DME+10% FCS was added. At 24 hours medium was changed to 2 ml fresh DME+10% FCS until harvest at 48 hrs.
(§6) Cell lines Cos 1 or CHO were transfected with 0.5 μg of pSVLCAT or 2 μg of pPGKlacZ plasmid using a range of concentrations of each transfection compound. The optimal concentration of compound, that is the concentration giving the highest level of CAT at 48 hours or the greatest percentage of lac z (β-galactosidase) staining cells at 24 hours was used to collate data for Table 1. As all compounds were not tested in a single experiment, absolute figures indicating transfection were not used. Rather, symbols are used to indicate the transfection efficiency relative to Lipofectamine (BRL), which was included as a control in all experiments. Table 1 thus indicates the relative efficiencies of a number of compounds in mediating the transfection of at least one cell type.
(§7) All test lipopeptide reagents were originally dissolved at 10 mM in 75% DMSO, and subsequently diluted with water to make a 2 mM stock stored at 4° C. Volumes of 2 mM stock lipopeptide ranging from 2 μl to 15 μl were diluted in 500 μl of DDME. 1 μg of plasmid pSVLCAT was separately diluted in 500 μl of DDME. Solutions were combined for 10-20 min at room temperature before adding to 500 μl of DDME in 60 mm dishes of subconfluent CHO cells (2×10^5 day-1) or Cos 1 cells (5×10^5 day-1); washed free of serum with DDME.
(§8) Cells were incubated for 6 hrs under standard conditions of 37° C. and 5% CO2 for 6 hours. 1.5 ml of DME/Hams+10% FCS (CHO) or DME+10% FCS (Cos 1) was added to the cells for overnight incubation. Fresh DME/Hams+10% FCS or DME+10% FCS was used to replace the medium for a further 24 hours prior to harvest. Cell lysates were prepared and assayed for CAT activity as described above. For Cos 1 cells, culture supernatants were assayed for CAT activity.
For transfection of pSVLCAT and subsequent assay of CAT enzyme, experiments "a" and "b" were carried out as described above.

Cos 1 cells [6] = format: cell-based, African Green Monkey; remark: listed apart in the source
Description: Relative levels of cytotoxicity were also assayed in subsequent experiments using the dye MTS, marketed as Cell titre 96 Aqueous (Promega).
as §4, §2

CHO cells [7] = test: Transfection of pSVLCAT, CAT assay, CHO; format: cell-based, Chinese Hamster
Description: Protocol was the same for Verafectin and Transfectam (see above) with the exception that 0.5 μg of pSVLCAT DNA was used /60 mm dish.
Lipofectamine protocol was according to manufacturer's instructions. 0.5 μg pSVLCAT/60 mm dish. CHO cells seeded 1×10^5 /60 mm dish and adhered overnight in DME/Hams medium with 10% FCS.
Transfectam 5 or 10 μl 1mg/400 μl stock solution.
Lipofectamine 5 or 10 μl 2 mg/ml (mixed formulation 3:1 with DOPE). VerafectinA3 (K3ATP3) and VerafectinG2 (K3G[Glycine]TP2) each at 5, 10 and 15 μl of 2 mM (2.8 and 2.3 mg/ml respectively) stock.
The serum free incubation period in the presence of test agents and DNA was 6 hours, then 1 ml DME/Hams+10% FCS was added. At 24 hrs the medium was changed to 2 ml of fresh DME/Hams+10% FCS until harvest at 48 hrs.
as §6, §7, §8
a. Using the standard transfection procedure described above, and 1 μg plasmid pSVLCAT, these formulations were tested on CHO cells at a single concentration equivalent to 10 μl of Verafectin A2 (2 mM) per sample and compared to unformulated compound and Lipofectamine in the same cell type. CAT production was assayed 48 hours after transfection.

[8] = Electron microscopy of formulated and unformulated compounds; format: physicochemical; conditions: negatively stained
Description: Solutions of formulated and unformulated compounds were analysed for potential membrane-like structure. In separate experiments the following samples were analysed:
a: Negatively stained samples of formulated compounds K3ATP2:DOPE, DOPE and the unformulated compounds K3C7ATL3 and Lipofectamine.
b: Rotary shadowed samples of K3C7ATL3 and Lipofectamine mixed with two ratios of nucleotide (plasmid).
Stock samples of liposomes at 2 mM, were diluted 1 in 10 with filtered distilled water, and mixed 1:1 with filtered negative stain (Ammonium Molybdate 2%, pH 6.5) and spread onto carbon-formvar coated copper/rhodium 200 mesh electron microscope grids, and examined in a Jeol JEM 100CX electron microscope at 60 kV at magnifications of between 33 k and 100 k.
Ratios of 0.69, and 0.25, of liposome:1 mole DNA nucleotides were diluted in water and mixed for 10 min at room temperature, spread onto carbon-formvar coated grids and rotary metal-shadowed with platinum-palladium (60:40) evaporated at an angle of 7° and examined in the electron microscope at 60 kV at magnifications between 26 k and 66 k.

[9] = Table 2, Cos 1, * separate experiment
[10] = Table 3, Cos 1, highest reading of 72 conditions

CCCCCCCCCCCCCC(=O)OCC(CO)(CO)NC(=O)[C@H](C)NC(=O)[C@H](CCCCN)NC(=O)[C@H](CCCCN)NC(=O)[C@@H](N)CCCCN [K3ATM1] (H-KKKA-X3)
Viability (CHO) (CHO cells [1]): 0.07 | ratio [lipid]/[DNA] at which maximum was achieved (Cos 1 cells [2]; Table 2, Cos 1): 0.69 | units β-gal (Cos 1 cells [2]; [9]): 5.85 × 10^-6 units | ratio [lipid]/[DNA] at which maximum was achieved (Cos 1 cells [2]; Table 3, Cos 1): .69 | β-gal (Cos 1) (Cos 1 cells [2]; [10]): 5.85 × 10^-6 | ratio [lipid]/[DNA] at which maximum was achieved (CHO cells [3]): .69 | β-gal (CHO) (CHO cells [3]): 5.18 × 10^-6 | Viability (Cos 1) (Cos 1 cells [4]): 0.102

CCCCCCCCCCCC(=O)OCC(CO)(CO)NC(=O)[C@H](C)NC(=O)[C@H](CCCCN)NC(=O)[C@H](CCCCN)NC(=O)[C@@H](N)CCCCN [K3ATL1] (H-KKKA-X2)
Viability (CHO) (CHO cells [1]): 0.072 | ratio [lipid]/[DNA] at which maximum was achieved (Cos 1 cells [2]; Table 2, Cos 1): 0.35 | units β-gal (Cos 1 cells [2]; [9]): 1.09 × 10^-5 units | ratio [lipid]/[DNA] at which maximum was achieved (Cos 1 cells [2]; Table 3, Cos 1): .35 | β-gal (Cos 1) (Cos 1 cells [2]; [10]): 1.09 × 10^-5 | ratio [lipid]/[DNA] at which maximum was achieved (CHO cells [3]): 2.77 | β-gal (CHO) (CHO cells [3]): 2.99 × 10^-6 | Viability (Cos 1) (Cos 1 cells [4]): 0.104

CCCCCCCCCCCCCCCC(=O)OCC(COC(=O)CCCCCCCCCCCCCCC)(COC(=O)CCCCCCCCCCCCCCC)NC(=O)[C@H](C)NC(=O)[C@H](CCCCN)NC(=O)[C@H](CCCCN)NC(=O)[C@@H](N)CCCCN [K3ATP3, trilysine alanine tris tripalmitate] (H-KKKA-{NHC(CH2O-Palmitoyl)3})
ratio [lipid]/[DNA] at which maximum was achieved (Cos 1 cells [2]; Table 2, Cos 1): 0.69 | units β-gal (Cos 1 cells [2]; Table 2, Cos 1, highest reading of 72 conditions): 2.73 × 10^-4 units | β-gal (Cos 1) (Cos 1 cells [2]; Table 3, Cos 1, # tested in a separate experiment): 2.73 × 10^-4 | β-gal (Cos 1) (Cos 1 cells [2]; [10]): 3.52 × 10^-5 | amount giving peak CAT level (Cos 1 cells [5]; Experiment 1, 2.5 mg/ml stock, 10 μl (25 μg)): 10 µL | CAT levels (Cos 1 cells [5]; Experiment 1, 5 μl (12.5 μg) and above, 48 hours): Significant CAT levels | reduction of CAT levels, overnight compared to 6 hour incubation (Cos 1 cells [5]; Experiment 2): approximately 50% | CAT levels (Cos 1 cells [5]; Experiment 2, 10 μl (25 μg) and above): Significant levels of CAT | transfection level relative to Lipofectamine (Cos 1 cells [5]; Experiment 4, Cos 1, 48 hours): approximately 60% | Transfection (CAT) (Cos 1 cells [5]; Table 1, Cos 1, optimised level of agent): +++(+) | MTS OD490-655 (Cos 1 cells [6]): 1.244 | Viability (Cos 1) (Cos 1 cells [6]): 1.24 | CAT activity (mean) (CHO cells [7]; "x" peptide experiment a, CHO, 25 μl lysate, 20 min assay at 37° C., optimal level): 6237 cpm | mean level of CAT activity (CHO cells [7]; "x" peptide experiment c, CHO, 2 hours incubation of 20 μl lysate): 13467 | CAT levels relative to Lipofectamine (CHO cells [7]; Experiment 3, CHO, 5 μl): ~18% | CAT levels relative to Transfectam (CHO cells [7]; Experiment 3, CHO, 5 μl): approximately 54% | CAT activity (mean) (CHO cells [7]; R1-R4 experiment e, CHO): 8325 cpm | Transfection (CAT) (CHO cells [7]; Table 1, CHO, optimised level of agent): +++ | Viability (Cos 1) (Cos 1 cells [4]): 0.077

CCCCCCCC/C=C\CCCCCCCC(=O)OC[C@H](COP(=O)(O)OCCN)OC(=O)CCCCCCC/C=C\CCCCCCCC [DOPE, Dioleoyl phosphatidyl ethanolamine, reference compound]
liposome structure (TEM) [8]: does not form a true liposome; also recorded: did not under the same conditions | transfection by DOPE alone (CHO cells [7]; CHO, unformulated or "formulated"): gave no transfection

Reference: patent US5906922A, “Delivery of nucleic acids” (Commonwealth Scientific and Industrial Research Organisation, priority 1994, dated 1999)
